Source: patent publication US11382892B2, “Method for administration” (Hoffmann-La Roche Inc., priority 2012, dated 2022)
“And” between values parts separate entries of the source, which are not always exact repeats. Equal entries are not always repeated.

What was measured:
[1] = Toxicity summary (body weight, mortality) in SJSA1 xenograft study; type: in vivo
Excerpt: In the examples below, weight loss was graphically represented as percent change in mean group body weight, using the formula: ((W−W0)/W0)×100, where ‘W’ represents mean body weight of the treated group at a particular day, and ‘W0’ represents mean body weight of the same treated group at initiation of treatment.
Female athymic Crl:NU-Foxn1nu mice (10/group), obtained from Charles River Laboratories (Wilmington, Del.) were utilized when they were approximately 10-12 weeks of age and weighed 23-25 g. The health of the mice was assessed daily by gross observation and analyses of blood samples taken from sentinel animals housed on shared shelf racks. All animals were allowed to acclimate and recover from any shipping-related stress for a minimum of 72 hours prior to experimental use. Autoclaved water and irradiated food (5058-ms Pico Lab mouse chow, Purina Mills, Richmond, Ind.) were provided ad libitum, and the animals were maintained on a 12 hour light and dark cycle. Cages, bedding and water bottles were autoclaved before use and changed weekly. All animal experiments were conducted in accordance with the Guide for the Care and Use of Laboratory Animals, local regulations, and protocols approved by the Roche Animal Care and Use Committee in an AAALAC accredited facility.
Treatment duration was 2-4 weeks. Dates of tumor implant, treatment initiation (study start date), and termination of treatment (study end date) can be found in Table 6 below. The starting tumor volume for this study was about 220 mm^3. Tumor volumes and animal body weights were measured three times per week and animals were monitored for clinical signs daily.

[2] = test system: MDM2 mRNA; experiment: MDM2 mRNA assay in patient tumor biopsies; type: in vivo, human; conditions: for MDM2 mRNA Average FCBL: cohort average; for MDM2 mRNA Median FCBL: cohort median; for MDM2 mRNA FCBL: individual patients, tumor biopsy vs baseline
Experimental: (§1) The 10 mg tablets contain hypromellose acetate succinate, mannitol, microcrystalline cellulose, croscarmellose sodium, colloidal silicon dioxide, and magnesium stearate. The film-coat consists of hypromellose, titanium dioxide, talc, triacetin, iron oxide yellow, and iron oxide red. The 50 mg, 200 mg, and 400 mg film coated tablets contain the excipients hypromellose acetate succinate, croscarmellose sodium, colloidal silicon dioxide, and magnesium stearate. The film-coat consists of polyvinyl alcohol, titanium dioxide, polyethylene glycol, talc, iron oxide yellow, iron oxide red, and iron oxide black.
(§2) Tumor biopsies were collected at baseline and cycle 1, day 5±2.

[3] = test system: Ki-67 protein; experiment: Ki-67 IHC assay in patient tumor biopsies; type: in vivo, human; conditions: for Ki-67 IHC Average % CBL: cohort average; for Ki-67 IHC Median % CBL: cohort median; for Ki-67 IHC % CBL: individual patients, tumor biopsy vs baseline
Experimental: as §1, §2
The Ki-67 protein is a cellular marker for proliferation. It is strictly associated with cell proliferation and can be measured in tissue sections via immunohistochemistry to determine degree of proliferation. Ki-67 protein is present during all active phases of the cell cycle (G1, S, G2, and mitosis), but is absent from resting cells (00).

[4] = test system: TUNEL + cells; experiment: TUNEL assay in patient tumor biopsy cells; type: in vivo, human; conditions: for TUNEL + cells (mm2) Average FCBL: cohort average; for TUNEL + cells (mm2) Median FCBL: cohort median; for TUNEL + cells (mm2) FCBL: individual patients, tumor biopsy vs baseline
Experimental: as §1, §2
Tumor biopsy cells were analyzed via TUNEL (terminal deoxynucleotidyl transferase dUTP nick end labeling) to determine cell apoptosis. TUNEL is a common method for detecting DNA fragmentation that results from apoptotic signaling cascades. The assay relies on the presence of nicks in the DNA which can be identified by terminal deoxynucleotidyl transferase or TdT, an enzyme that will catalyze the addition of dUTPs that are secondarily labeled with a marker.

[5] = 100 mg/kg QD po 2 on/12 off x 2
[6] = 200 mg/kg (two 100 mg/kg doses 8 hr apart) 1x/wk po

## COc1cc(C(=O)O)ccc1NC(=O)[C@@H]1N[C@@H](CC(C)(C)C)[C@](C#N)(c2ccc(Cl)cc2F)[C@H]1c1cccc(Cl)c1F [Compound A, 4-{[(2R,3S,4R,5S)-4-(4-Chloro-2-fluoro-phenyl)-3-(3-chloro-2-fluoro-phenyl)-4-cyano-5-(2,2-dimethyl-propyl)-pyrrolidine-2-carbonyl]-amino}-3-methoxy-benzoic acid]
[1]; 7.5 mg/kg QD po
  # of animals ≥20% BWL: 0
  % Change in Body Weight at end of Study Day 29: 9.0%
  Maximum % Weight gain: 9.0%
  Maximum % Weight loss: −0.3%
  Mortality: 0
[1]; 15 mg/kg QD po
  # of animals ≥20% BWL: 0
  % Change in Body Weight at end of Study Day 29: 5.9%
  Maximum % Weight gain: 5.9%
  Maximum % Weight loss: −2.2%
  Mortality: 0
[1]; 20 mg/kg QD po 20 on/8 off
  # of animals ≥20% BWL: 0
  % Change in Body Weight at end of Study Day 29: 1.2%
  Maximum % Weight gain: 1.2%
  Maximum % Weight loss: −3.9%
  Mortality: 0
[1]; 30 mg/kg QD po
  # of animals ≥20% BWL: 0
  % Change in Body Weight at end of Study Day 29: 1.3%
  Maximum % Weight gain: 1.3%
  Maximum % Weight loss: −0.2%
  Mortality: 0
[1]; 50 mg/kg 1x/wk po
  # of animals ≥20% BWL: 0
  % Change in Body Weight at end of Study Day 29: 6.6%
  Maximum % Weight gain: 6.6%
  Maximum % Weight loss: −0.3%
  Mortality: 0
[1]; 50 mg/kg QD po 2 on/5 off x 4
  # of animals ≥20% BWL: 0
  % Change in Body Weight at end of Study Day 29: 7.1%
  Maximum % Weight gain: 7.1%
  Maximum % Weight loss: −0.8%
  Mortality: 0
[1]; 50 mg/kg QD po 4 on/10 off x 2
  # of animals ≥20% BWL: 0
  % Change in Body Weight at end of Study Day 29: 1.2%
  Maximum % Weight gain: 1.2%
  Maximum % Weight loss: −1.1%
  Mortality: 0
[1]; 80 mg/kg QD po 5 on/23 off
  # of animals ≥20% BWL: 0
  % Change in Body Weight at end of Study Day 29: 8.0%
  Maximum % Weight gain: 8.0%
  Maximum % Weight loss: 0.3%
  Mortality: 0
[1]; 100 mg/kg 1x/wk po
  # of animals ≥20% BWL: 0
  % Change in Body Weight at end of Study Day 29: 9.1%
  Maximum % Weight gain: 9.1%
  Maximum % Weight loss: 4.2%
  Mortality: 0
[1]; 100 mg/kg QD po 2 on/5 off x 4
  # of animals ≥20% BWL: 0
  % Change in Body Weight at end of Study Day 29: 1.3%
  Maximum % Weight gain: 1.3%
  Maximum % Weight loss: −2.8%
  Mortality: 0
[1]; [5]
  # of animals ≥20% BWL: 0
  % Change in Body Weight at end of Study Day 29: 0.9%
  Maximum % Weight gain: 1.8%
  Maximum % Weight loss: −0.6%
  Mortality: 0
[1]; [6]
  # of animals ≥20% BWL: 0
  % Change in Body Weight at end of Study Day 29: 6.3%
  Maximum % Weight gain: 6.3%
  Maximum % Weight loss: 1.9%
  Mortality: 0
[2]; BM-A1 800 mg bid Qwk × 3
  MDM2 mRNA Average FCBL: 1.2
  MDM2 mRNA Median FCBL: 1.1
  MDM2 mRNA FCBL: 1.0 and 1.4 and 1.1
[2]; BM-A2 1200 mg bid Qwk × 3
  MDM2 mRNA Average FCBL: 1.4
  MDM2 mRNA Median FCBL: 1.3
  MDM2 mRNA FCBL: 1.0 (2×) and 1.8 and 2.1 and 1.3
[2]; BM-B1 400 mg bid × 5 d
  MDM2 mRNA Average FCBL: 8.5
  MDM2 mRNA Median FCBL: 8.7
  MDM2 mRNA FCBL: 5.4 and 3.7 and 12.1 and 12.9
[2]; BM-B2 500 mg bid × 3 d
  MDM2 mRNA Average FCBL: 5.1
  MDM2 mRNA Median FCBL: 1.3
  MDM2 mRNA FCBL: 0.2 and 0.7 and 1.3 and 3.8 and 19.6
[2]; BM-B3 500 mg qd × 5 d
  MDM2 mRNA Average FCBL: 2.4
  MDM2 mRNA Median FCBL: 2.0
  MDM2 mRNA FCBL: 1.5 and 2.5 and 4.2 and 1.2
[2]; doses and schedules of Table 8
  levels of MDM2 mRNA expression in patient's tumors: increase in the levels of MDM2 mRNA expression
[3]; BM-A1 800 mg bid Qwk × 3
  Ki-67 IHC Average % CBL: −8.5%
  Ki-67 IHC Median % CBL: −8.5%
  Ki-67 IHC % CBL: 14% and −31%
[3]; BM-A2 1200 mg bid Qwk × 3
  Ki-67 IHC Average % CBL: −27.8%
  Ki-67 IHC Median % CBL: −33.0%
  Ki-67 IHC % CBL: −57% and 30% and −5% and −75% and −33%
[3]; BM-B1 400 mg bid × 5 d
  Ki-67 IHC Average % CBL: −17.7%
  Ki-67 IHC Median % CBL: −13.0%
  Ki-67 IHC % CBL: −97% and −13% and 57%
[3]; BM-B2 500 mg bid × 3 d
  Ki-67 IHC Average % CBL: −53.9%
  Ki-67 IHC Median % CBL: −69.8%
  Ki-67 IHC % CBL: 3% and −70% (2×) and −79%
[3]; BM-B3 500 mg qd × 5 d
  Ki-67 IHC Average % CBL: −57.1%
  Ki-67 IHC Median % CBL: −66.5%
  Ki-67 IHC % CBL: −67% and −96% and −8%
[3]; doses and schedules of Table 9
  tumor proliferation via Ki67: Decrease levels of tumor proliferation
[4]; BM-A1 800 mg bid Qwk × 3
  TUNEL + cells (mm2) Average FCBL: 1.2
  TUNEL + cells (mm2) Median FCBL: 0.8
  TUNEL + cells (mm2) FCBL: 0.8 (2×) and 3.2 and 0.1
[4]; BM-A2 1200 mg bid Qwk × 3
  TUNEL + cells (mm2) Average FCBL: 2.7
  TUNEL + cells (mm2) Median FCBL: 2.3
  TUNEL + cells (mm2) FCBL: 5.3 and 2.3 and 0.9 and 1.6 and 3.3
[4]; BM-B1 400 mg bid × 5 d
  TUNEL + cells (mm2) Average FCBL: 1.7
  TUNEL + cells (mm2) Median FCBL: 1.8
  TUNEL + cells (mm2) FCBL: 0.9 (2×) and 1.8 (2×) and 3.2
[4]; BM-B2 500 mg bid × 3 d
  TUNEL + cells (mm2) Average FCBL: 1.7
  TUNEL + cells (mm2) Median FCBL: 0.9
  TUNEL + cells (mm2) FCBL: 0.5 and 0.4 and 0.6 and 5.3 and 1.2 and 1.9
[4]; BM-B3 500 mg qd × 5 d
  TUNEL + cells (mm2) Average FCBL: 1.2
  TUNEL + cells (mm2) Median FCBL: 1.2
  TUNEL + cells (mm2) FCBL: 0.6 and 1.7 and 1.2
[4]; doses and schedules of Table 10
  apoptosis by TUNEL: increase in apoptosis
